Measured values taken from ChEMBL document CHEMBL1629523, “Synthesis and antibacterial activity of C-12 pyrazolinyl spiro ketolides” (2010).
Converted amounts (≈) assume the structure as drawn.

Columns and labels:
Type in all cases: functional
[1] = test system: Haemophilus influenzae; assay: Antibacterial activity against erythromycin-susceptible Haemophilus influenzae 5096 by broth microdilution method
[2] = test system: Staphylococcus aureus; assay: Antibacterial activity against erythromycin-resistant Staphylococcus aureus 5676 by broth microdilution method
[3] = test system: Staphylococcus aureus; assay: Antibacterial activity against erythromycin-susceptible Staphylococcus aureus ATCC 6538p by broth microdilution method
[4] = test system: Streptococcus pneumoniae; assay: Antibacterial activity against erythromycin-susceptible Streptococcus pneumoniae 2860 by broth microdilution method
[5] = test system: Staphylococcus aureus; assay: Antibacterial activity against erythromycin-susceptible Staphylococcus aureus 26001 by broth microdilution method
[6] = test system: Staphylococcus aureus; assay: Antibacterial activity against erythromycin-resistant Staphylococcus aureus 5677 by broth microdilution method
[7] = test system: Staphylococcus aureus; assay: Antibacterial activity against erythromycin-susceptible Staphylococcus aureus ATCC 29213 by broth microdilution method
[8] = test system: Streptococcus pneumoniae; assay: Antibacterial activity against erythromycin-resistant Streptococcus pneumoniae 673 by broth microdilution method
[9] = test system: Staphylococcus aureus; assay: Antibacterial activity against erythromycin-resistant Staphylococcus aureus AD-08 by broth microdilution method
[10] = test system: Streptococcus pneumoniae; assay: Antibacterial activity against erythromycin-resistant Streptococcus pneumoniae 5158 by broth microdilution method
[11] = test system: Streptococcus pneumoniae; assay: Antibacterial activity against erythromycin-resistant Streptococcus pneumoniae 1210 by broth microdilution method
[12] = test system: Haemophilus influenzae; assay: Antibacterial activity against erythromycin-resistant Haemophilus influenzae 2412 by broth microdilution method

| Structure (SMILES) | MIC [1] | MIC [2] | MIC [3] | MIC [4] | MIC [5] | MIC [6] | MIC [7] | MIC [8] | MIC [9] | MIC [10] | MIC [11] | MIC [12] |
| --- | --- | --- | --- | --- | --- | --- | --- | --- | --- | --- | --- | --- |
| CC[C@H]1OC(=O)[C@H](C)C(=O)[C@H](C)[C@@H](O[C@@H]2O[C@H](C)C[C@H](N(C)C)[C@H]2O)[C@](C)(OC)C[C@@H](C)C(=O)[C@H](C)[C@@H](O)C12C=NNC2C(=O)OC (some centres not stated) | 0.06 µg/mL (≈ 0.0896 µM) | 4 µg/mL (≈ 5.97 µM) | 0.12 µg/mL (≈ 0.179 µM) | 0.5 µg/mL (≈ 0.746 µM) | 0.03 µg/mL (≈ 0.0448 µM) | 4 µg/mL (≈ 5.97 µM) | 0.12 µg/mL (≈ 0.179 µM) | 8 µg/mL (≈ 11.9 µM) | 256 µg/mL (≈ 382 µM) | 8 µg/mL (≈ 11.9 µM) | > 64 µg/mL | > 8 µg/mL |
| CC[C@H]1OC(=O)[C@H](C)[C@@H](O[C@H]2C[C@@](C)(OC)[C@@H](O)[C@H](C)O2)[C@H](C)[C@@H](O[C@@H]2O[C@H](C)C[C@H](N(C)C)[C@H]2O)[C@](C)(O)C[C@@H](C)C(=O)[C@H](C)[C@@H](O)[C@]1(C)O [ERYTHROMYCIN] | 0.06 µg/mL (≈ 0.0818 µM) | > 1020 µg/mL | 0.5 µg/mL (≈ 0.681 µM) | 0.25 µg/mL (≈ 0.341 µM) | ≤ 0.063 µg/mL | > 1020 µg/mL | 0.5 µg/mL (≈ 0.681 µM) | > 32 µg/mL | > 1020 µg/mL | > 32 µg/mL | > 32 µg/mL | 4 µg/mL (≈ 5.45 µM) |
| CC[C@H]1OC(=O)[C@H](C)C(=O)[C@H](C)[C@@H](O[C@@H]2O[C@H](C)C[C@H](N(C)C)[C@H]2O)[C@@](C)(OC)C[C@@H](C)C(=O)[C@H](C)[C@@H](O)C12C=NNC2 (some centres not stated) | 0.06 µg/mL (≈ 0.0981 µM) | 4 µg/mL (≈ 6.54 µM) | 0.25 µg/mL (≈ 0.409 µM) | 0.5 µg/mL (≈ 0.817 µM) | 0.12 µg/mL (≈ 0.196 µM) | 8 µg/mL (≈ 13.1 µM) | 0.25 µg/mL (≈ 0.409 µM) | > 64 µg/mL | 512 µg/mL (≈ 837 µM) | > 64 µg/mL | > 64 µg/mL | > 8 µg/mL |
| CC[C@H]1OC(=O)[C@H](C)C(=O)[C@H](C)[C@@H](O[C@@H]2O[C@H](C)C[C@H](N(C)C)[C@H]2O)[C@](C)(OC)C[C@@H](C)C(=O)[C@H](C)[C@@H](O)C12C=NNC2C (some centres not stated) | 0.06 µg/mL (≈ 0.0959 µM) | 8 µg/mL (≈ 12.8 µM) | 0.25 µg/mL (≈ 0.399 µM) | 0.5 µg/mL (≈ 0.799 µM) | 0.12 µg/mL (≈ 0.192 µM) | 8 µg/mL (≈ 12.8 µM) | 0.5 µg/mL (≈ 0.799 µM) | > 64 µg/mL | 512 µg/mL (≈ 818 µM) | > 64 µg/mL | > 64 µg/mL | > 8 µg/mL |
| CC[C@H]1OC(=O)[C@H](C)[C@@H](O[C@H]2C[C@@](C)(OC)[C@@H](O)[C@H](C)O2)[C@H](C)[C@@H](O[C@@H]2O[C@H](C)C[C@H](N(C)C)[C@H]2O)[C@](C)(OC)C[C@@H](C)C(=O)[C@H](C)[C@@H](O)[C@]1(C)O [CLARITHROMYCIN] | 0.06 µg/mL (≈ 0.0802 µM) | > 1020 µg/mL | 0.5 µg/mL (≈ 0.668 µM) | 0.125 µg/mL (≈ 0.167 µM) | ≤ 0.063 µg/mL | > 1020 µg/mL | 0.25 µg/mL (≈ 0.334 µM) | > 16 µg/mL | > 1020 µg/mL | > 16 µg/mL | > 16 µg/mL | 8 µg/mL (≈ 10.7 µM) |
| CCOC(=O)C1NN=CC12[C@H](O)[C@@H](C)C(=O)[C@H](C)C[C@@](C)(OC)[C@H](O[C@@H]1O[C@H](C)C[C@H](N(C)C)[C@H]1O)[C@@H](C)C(=O)[C@@H](C)C(=O)O[C@@H]2CC (some centres not stated) | 0.06 µg/mL (≈ 0.0877 µM) | 8 µg/mL (≈ 11.7 µM) | 0.12 µg/mL (≈ 0.175 µM) | 0.5 µg/mL (≈ 0.731 µM) | 0.12 µg/mL (≈ 0.175 µM) | 8 µg/mL (≈ 11.7 µM) | 0.12 µg/mL (≈ 0.175 µM) | 8 µg/mL (≈ 11.7 µM) | 512 µg/mL (≈ 749 µM) | 8 µg/mL (≈ 11.7 µM) | > 64 µg/mL | > 8 µg/mL |
